In patent US20260223852A1, “FUNGICIDAL COMPOSITIONS” (SYNGENTA CROP PROTECTION AG, priority 2023, published 2026):

Tests used:
[1] = tested on: Botryotinia fuckeliana (Botrytis cinerea); assay: Example B2: Botryotinia fuckeliana (Botrytis cinerea) / liquid culture (gray mould); assay type: cell-based; conditions: compared to untreated control
Protocol: Example B2: Botryotinia fuckeliana (Botrytis cinerea)/Liquid Culture (Gray Mould)
(§1) Conidia of the fungus from cryogenic storage are directly mixed into nutrient broth (Vogels broth). After placing a (DMSO) solution of test compound into a microtiter plate (96-well format), the nutrient broth containing the fungal spores is added. The test plates are incubated at 24° C. and the inhibition of growth is determined photometrically 3-4 days after application.

[2] = tested on: Mycosphaerella arachidis (Cercospora arachidicola); assay: Example B13: Mycosphaerella arachidis (Cercospora arachidicola) / liquid culture (early leaf spot); assay type: cell-based; conditions: compared to untreated control
Protocol: Example B13: Mycosphaerella arachidis (Cercospora arachidicola)/Liquid Culture (Early Leaf Spot)
as §1, with “(PDB potato dextrose” for “(Vogels”, “4-5” for “3-4”

[3] = tested on: Monographella nivalis (Microdochium nivale); assay: Example B12: Monographella nivalis (Microdochium nivale) / liquid culture (foot rot cereals); assay type: cell-based; conditions: compared to untreated control
Protocol: Example B12: Monographella Nivalis (Microdochium Nivale)/Liquid Culture (Foot Rot Cereals)
as §1, with “(PDB potato dextrose” for “(Vogels”, “4-5” for “3-4”

[4] = tested on: Glomerella lagenarium (Colletotrichum lagenarium); assay: Example B5: Glomerella lagenarium (Colletotrichum lagenarium) / liquid culture (anthracnose); assay type: cell-based; conditions: Colletotrichum orbiculare, compared to untreated control
Protocol: Example B5: Glomerella Lagenarium (Colletotrichum Lagenarium)/Liquid Culture (Anthracnose)
as §1, with “(PDB potato dextrose” for “(Vogels”, “measured” for “determined”

[5] = tested on: Mycosphaerella graminicola (Septoria tritici); assay: Example B19: Mycosphaerella graminicola (Septoria tritici) / liquid culture (Septoria blotch); assay type: cell-based; conditions: Zymoseptoria tritici, compared to untreated control
Protocol: Example B19: Mycosphaerella graminicola (Septoria tritici)/Liquid Culture (Septoria Blotch)
as §1, with “(PDB potato dextrose” for “(Vogels”, “4-5” for “3-4”

[6] = tested on: Blumeria graminis f. sp. tritici (Erysiphe graminis f. sp. tritici); assay: Example B7: Blumeria graminis f. sp. tritici / wheat / leaf disc preventative (powdery mildew on wheat); assay type: in vivo; conditions: foliar, compared to untreated control
Protocol: Example B7: Blumeria Graminis f. Sp. Tritici (Erysiphe graminis f. Sp. Tritici)/Wheat/Leaf Disc Preventative (Powdery Mildew on Wheat)
Wheat leaf segments cv. Kanzler are placed on agar in a multiwell plate (24-well format) and sprayed with the formulated test compound diluted in water. The leaf disks are inoculated by shaking powdery mildew infected plants above the test plates 1 day after application. The inoculated leaf disks are incubated at 20° C. and 60% rh under a light regime of 24 h darkness followed by 12 h light/12 h darkness in a climate chamber and the activity of a compound is assessed as percent disease control compared to untreated when an appropriate level of disease damage appears on untreated check leaf segments (6-8 days after application).

Fusarium culmorum = assay: microbe, parasite or virus in culture; assay type: cell-based; conditions: read-out: control of Fusarium culmorum
Pyrenophora teres = assay: Example B17: Pyrenophora teres / barley / leaf disc preventative (net blotch); assay type: in vivo; conditions: foliar, compared to untreated control
Protocol: Example B17: Pyrenophora teres/Barley/Leaf Disc Preventative (Net Blotch)
Barley leaf segments cv. Hasso are placed on agar in a multiwell plate (24-well format) and sprayed with the formulated test compound diluted in water. The leaf segments are inoculated with a spore suspension of the fungus 2 days after application. The inoculated leaf segments are incubated at 20° C. and 65% rh under a light regime of 12 h light/12 h darkness in a climate cabinet and the activity of a compound is assessed as disease control compared to untreated when an appropriate level of disease damage appears in untreated check leaf segments (5-7 days after application).

[7] = tested on: Puccinia recondita f. sp. tritici; assay: Example B15: Puccinia recondita f. sp. tritici / wheat / leaf disc preventative (brown rust); assay type: in vivo; conditions: 200 ppm, compared to untreated control
Protocol: Example B15: Puccinia recondita f. Sp. Tritici/Wheat/Leaf Disc Preventative (Brown Rust)
Wheat leaf segments cv. Kanzler are placed on agar in multiwell plates (24-well format) and sprayed with the formulated test compound diluted in water. The leaf disks are inoculated with a spore suspension of the fungus 1 day after application. The inoculated leaf segments are incubated at 19° C. and 75% rh under a light regime of 12 h light/12 h darkness in a climate cabinet and the activity of a compound is assessed as percent disease control compared to untreated when an appropriate level of disease damage appears in untreated check leaf segments (7-9 days after application).

SMILES: Cn1cc(C(C)(CNC(=O)c2nnc(-c3ccc(F)nc3F)s2)c2cccc(Cl)n2)cn1 (centres unmarked) [X.16, N-[2-(6-chloro-2-pyridyl)-2-(1-methylpyrazol-4-yl)propyl]-5-(2,6-difluoro-3-pyridyl)-1,3,4-thiadiazole-2-carboxamide]
- inhibition of growth at 20 ppm [1]: ≥ 80%
- inhibition of growth at 20 ppm [2]: ≥ 80%
- inhibition of growth at 20 ppm [3]: ≥ 80%
- inhibition of growth at 20 ppm [4]: ≥ 80%
- inhibition of growth at 20 ppm [5]: ≥ 80%

SMILES: Cn1cc(C(C)(CNC(=O)c2cc(-c3ncc(F)cc3F)on2)c2cccc(Cl)n2)cn1 (centres unmarked) [X.11, N-[2-(6-chloro-2-pyridyl)-2-(1-methylpyrazol-4-yl)propyl]-5-(3,5-difluoro-2-pyridyl)isoxazole-3-carboxamide]
- inhibition of growth at 20 ppm [1]: ≥ 80%
- pest or weed control at 200 ppm [6]: ≥ 80%
- inhibition of growth at 20 ppm [2]: ≥ 80%
- inhibition of growth at 20 ppm [3]: ≥ 80%
- inhibition of growth at 20 ppm (Fusarium culmorum): ≥ 80%
- inhibition of growth at 20 ppm [4]: ≥ 80%
- inhibition of growth at 20 ppm [5]: ≥ 80%

SMILES: Cn1cc(C(C)(CNC(=O)c2nnc(-c3ncc(F)cc3F)s2)c2cccc(C#N)n2)cn1 (centres unmarked) [X.14, N-[2-(6-cyano-2-pyridyl)-2-(1-methylpyrazol-4-yl)propyl]-5-(3,5-difluoro-2-pyridyl)-1,3,4-thiadiazole-2-carboxamide]
- inhibition of growth at 20 ppm [1]: ≥ 80%
- pest or weed control at 200 ppm [6]: ≥ 80%
- inhibition of growth at 20 ppm [4]: ≥ 80%
- inhibition of growth at 20 ppm [5]: ≥ 80%
- pest or weed control at 200 ppm (Pyrenophora teres): ≥ 80%

SMILES: Cn1cc(C(C)(CNC(=O)c2cc(-c3ccc(F)cc3F)on2)c2cccc(Cl)n2)cn1 (centres unmarked) [X.01, N-[2-(6-chloro-2-pyridyl)-2-(1-methylpyrazol-4-yl)propyl]-5-(2,4-difluorophenyl)isoxazole-3-carboxamide]
- control of Puccinia recondita f. sp. tritici [7]: at least 80%

SMILES: Cn1cc(C(C)(CNC(=O)c2nnc(-c3ncc(F)cc3F)s2)c2cccc(Cl)n2)cn1 (centres unmarked) [X.15, N-[2-(6-chloro-2-pyridyl)-2-(1-methylpyrazol-4-yl)propyl]-5-(3,5-difluoro-2-pyridyl)-1,3,4-thiadiazole-2-carboxamide]
- inhibition of growth at 20 ppm [1]: ≥ 80%
- pest or weed control at 200 ppm [6]: ≥ 80%
- inhibition of growth at 20 ppm [2]: ≥ 80%
- inhibition of growth at 20 ppm [3]: ≥ 80%
- inhibition of growth at 20 ppm (Fusarium culmorum): ≥ 80%
- inhibition of growth at 20 ppm [4]: ≥ 80%
- inhibition of growth at 20 ppm [5]: ≥ 80%
- pest or weed control at 200 ppm (Pyrenophora teres): ≥ 80%
